Data on 14 compounds can be found in PMC7059793, “Novel Chemical Scaffolds to Inhibit the Neutral Amino Acid Transporter B^0AT1 (SLC6A19), a Potential Target to Treat Metabolic Diseases” (Frontiers in Pharmacology, 2020).

In assay [1] the target is T1, B^0AT1 (Homo sapiens, UniProt Q695T7).
T1 construct: expressed in transfected cells
T1 sequence (Q695T7 1-634): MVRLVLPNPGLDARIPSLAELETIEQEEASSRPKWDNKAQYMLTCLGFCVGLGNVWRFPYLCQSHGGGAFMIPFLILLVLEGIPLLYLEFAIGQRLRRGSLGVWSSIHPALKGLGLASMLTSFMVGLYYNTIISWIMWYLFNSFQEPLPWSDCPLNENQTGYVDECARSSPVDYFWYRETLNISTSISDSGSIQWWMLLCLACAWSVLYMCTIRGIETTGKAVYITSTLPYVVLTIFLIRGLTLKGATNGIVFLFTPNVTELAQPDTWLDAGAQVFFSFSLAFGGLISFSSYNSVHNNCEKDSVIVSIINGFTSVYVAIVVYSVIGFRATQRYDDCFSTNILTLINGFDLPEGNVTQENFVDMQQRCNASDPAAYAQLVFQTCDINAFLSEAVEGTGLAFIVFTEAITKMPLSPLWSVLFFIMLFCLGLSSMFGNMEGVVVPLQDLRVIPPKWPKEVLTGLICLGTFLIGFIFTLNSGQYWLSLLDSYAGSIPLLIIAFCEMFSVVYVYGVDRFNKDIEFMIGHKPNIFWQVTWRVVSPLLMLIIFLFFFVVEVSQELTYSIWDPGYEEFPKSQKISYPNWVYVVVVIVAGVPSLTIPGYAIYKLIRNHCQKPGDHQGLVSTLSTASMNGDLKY
T1 sequence (Q9HBJ8 15-222 partner): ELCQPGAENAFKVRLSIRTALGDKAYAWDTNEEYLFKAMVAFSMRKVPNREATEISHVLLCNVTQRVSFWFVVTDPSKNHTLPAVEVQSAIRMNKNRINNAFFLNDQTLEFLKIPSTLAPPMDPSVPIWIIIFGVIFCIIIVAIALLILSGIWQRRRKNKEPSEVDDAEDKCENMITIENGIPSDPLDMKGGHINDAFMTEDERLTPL
As to the kind of experiment: Radioactive flux assay (radiolabelled leucine/isoleucine uptake) in CHO-BC cells. Format: cell-based. As to conditions: 150 μM [14C]leucine or [14C]isoleucine, 6 min, 37°C. How it is done:
CHO-BC cells with passage numbers from 3 to 10 were used in radio-labelled uptake assays. Before the assay, the cells were seeded out in 35 mm dishes (Corning) and maintained for 48–72 h until reaching 80–90% confluence. To initiate transport, the culture medium was removed and the cells washed three times with HBSS + G. Subsequently, cells were incubated with HBSS + G, radiolabelled substrates (150 μM L-[U-^14C]leucine or 150 μM L-[U-^14C]isoleucine) and inhibitors as indicated in the figures or table in a 37°C water bath for 6 min. To terminate transport, cells were washed three times with ice-cold HBSS pH 7.5. For measuring sodium-independent uptake, NaCl in Hank’s buffer was replaced by NMDG-Cl. Cells were then harvested by homogenizing with 500 µl of 0.1 M HCl. An aliquot of 400 µl was used for scintillation counting and the remainder for protein quantification. To investigate inhibition of ASCT2, uptake of 100 μM [^14C]glutamine was measured in 143B cells in the absence and presence of inhibitor (at 10 μM and 50 μM). To measure inhibition of LAT1, uptake of [^14C]leucine was measured in HBSS + G in which NaCl was replaced by NMDG-Cl in 143B cells in the absence and presence of inhibitor (at 10 μM and 50 μM).
(§1) Data are shown as mean ± S.D., transport activities indicated as Na^+-dependent net uptake, were calculated by subtracting the uptake activity in the absence of Na^+ from the total uptake rate. The fluorescent signals measured in the FLIPR assay were normalized to baseline readings before the addition of substrates. Data are presented as percentage of baseline at each time point. IC50 was calculated using the equation: y=ymax(1−[x]/[x]+IC50) .

The target of assay [2] is T1, B^0AT1. Briefly: Membrane potential detecting FLIPR assay in CHO-BC cells. The format is cell-based. Particulars: 30 min pre-incubation, leucine or isoleucine 1.5 mM. How it is done: CHO-B^0AT1-collectrin Cells (CHO-BC) were generated, cultured, and used as described recently ([Cheng et al., 2017]). Expression levels of B^0AT1 in CHO-BC cells decline over time. As a result, passages <10 were used for experiments. The cells were maintained in Ham’s F-12 glutamax media with 10% (v/v) fetal bovine serum (FBS, Heat inactivated, 10082147 Gibco), 1mM glutamine, 300μg/ml hygromycin B and 275 μg/ml geneticin.
Membrane depolarisation induced by amino acid transport was monitored using a FLIPR® kit (Molecular Devices, R8042 BLUE DYE). Before the assay, CHO-BC cells were seeded out at a density of 60,000 cells/well and maintained in a flat transparent bottom 96-well plate (Corning) overnight. After washing three times with Hank’s balanced salt solution (136.6 mM NaCl, 5.4 mM KCl, 0.44 mM KH2PO4, 2.7mM Na2HPO4, 1.26mM CaCl2, 0.5mM MgCl2, 0.4 mM MgSO4, 10mM HEPES, pH 7.5, supplemented with 5 mM glucose, abbreviated HBSS + G), cells in each well were incubated for 30 min at room temperature in 50 µl of HBSS pH 7.5 containing 5 mM glucose and compounds as indicated, together with 50 µl of dye-loading buffer provided with the kit. Subsequently, the fluorescence signal was detected every 10 s before and after the addition of leucine or isoleucine at a final concentration of 1.5 mM. Fluorescence was detected at room temperature using a PerkinElmer multimode Plate Reader, with an excitation wavelength of 530 nm and emission wavelength of 565 nm.
as §1

For assay [3], the target named is T1, B^0AT1. As to conditions: reference not printed at the place; ref Danthi et al., 2019; cited from earlier work.
Assay [4] deals with T2, B^0AT1 (Mus musculus, UniProt Q9D687).
T2 construct: from tissue; host or cells: small intestine of C57/BL6J female mice, inverted 1 cm sections
T2 sequence (Q9D687 whole entry): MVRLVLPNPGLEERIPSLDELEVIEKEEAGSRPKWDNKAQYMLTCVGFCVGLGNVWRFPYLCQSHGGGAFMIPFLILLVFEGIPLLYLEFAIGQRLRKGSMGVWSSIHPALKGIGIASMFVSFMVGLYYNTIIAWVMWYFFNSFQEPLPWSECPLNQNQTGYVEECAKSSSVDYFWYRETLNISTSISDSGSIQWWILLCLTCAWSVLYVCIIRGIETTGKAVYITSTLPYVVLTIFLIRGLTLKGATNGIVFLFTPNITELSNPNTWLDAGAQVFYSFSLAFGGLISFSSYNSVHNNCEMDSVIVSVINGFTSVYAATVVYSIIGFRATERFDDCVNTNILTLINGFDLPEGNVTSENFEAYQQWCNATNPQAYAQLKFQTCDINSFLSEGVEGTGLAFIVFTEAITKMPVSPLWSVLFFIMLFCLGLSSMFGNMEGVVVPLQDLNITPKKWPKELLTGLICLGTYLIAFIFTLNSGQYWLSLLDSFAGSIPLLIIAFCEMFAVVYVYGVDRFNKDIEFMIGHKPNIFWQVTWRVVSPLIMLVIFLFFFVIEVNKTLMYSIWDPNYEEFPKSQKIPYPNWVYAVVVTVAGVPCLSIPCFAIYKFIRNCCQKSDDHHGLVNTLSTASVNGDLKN
T2 sequence (Q8R0I0 18-805 partner): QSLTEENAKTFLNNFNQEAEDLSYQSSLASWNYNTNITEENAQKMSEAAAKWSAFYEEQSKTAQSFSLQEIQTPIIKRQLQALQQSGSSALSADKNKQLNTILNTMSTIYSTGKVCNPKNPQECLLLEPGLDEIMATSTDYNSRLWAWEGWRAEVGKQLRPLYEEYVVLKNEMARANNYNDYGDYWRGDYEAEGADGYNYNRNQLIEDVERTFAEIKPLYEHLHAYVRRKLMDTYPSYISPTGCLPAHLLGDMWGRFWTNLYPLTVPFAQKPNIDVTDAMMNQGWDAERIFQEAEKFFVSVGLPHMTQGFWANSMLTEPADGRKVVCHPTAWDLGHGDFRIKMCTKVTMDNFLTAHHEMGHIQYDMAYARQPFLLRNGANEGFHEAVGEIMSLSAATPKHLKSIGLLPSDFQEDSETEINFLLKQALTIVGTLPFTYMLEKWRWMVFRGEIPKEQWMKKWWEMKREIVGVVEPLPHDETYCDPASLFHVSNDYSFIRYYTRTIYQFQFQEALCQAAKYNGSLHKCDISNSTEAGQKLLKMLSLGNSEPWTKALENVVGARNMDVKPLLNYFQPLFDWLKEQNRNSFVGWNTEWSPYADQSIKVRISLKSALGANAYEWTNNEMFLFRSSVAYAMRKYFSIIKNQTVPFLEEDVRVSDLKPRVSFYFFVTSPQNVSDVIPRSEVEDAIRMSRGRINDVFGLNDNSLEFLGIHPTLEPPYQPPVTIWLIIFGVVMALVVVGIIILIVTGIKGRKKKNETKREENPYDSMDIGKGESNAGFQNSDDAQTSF
As to the kind of experiment: Na+-dependent leucine uptake in inverted sections of mouse intestine. As to conditions: 50 μM inhibitor, 150 μM [14C]leucine. The text has this: For uptake assays with inverted sections of mouse small intestine, 5–7 months old C57/BL6J female mice were sacrificed by cervical dislocation (Animal ethics protocol A2016/41, Australian National University). The small intestine was removed and the intestinal lumen was rinsed with ice-cold 0.9% NaCl. Subsequently, the small intestine was inverted on a metal rod to expose the mucosa. The inverted intestine was then cut into 1 cm pieces and fitted onto enzyme spatulas, which were immersed in HBSS pH 7.5 supplemented with 1 mM glutamine and protease inhibitor (Roche Complete). After washing twice in modified HBSS pH 7.5 (containing 10% NaCl + 90% NMDG-Cl for Na^+-dependent uptake and 100% NMDG-Cl for Na^+-independent uptake, both buffers supplemented with 1 mM glutamine) to remove residual compounds, the segments were pre-incubated in the same buffer in the presence of 50 µM of transport inhibitor and protease inhibitors for 15 min. At the end of the pre-incubation, the segments were transferred for 30 s into uptake buffer at 37°C (HBSS pH 7.5 supplemented with 150 μM [^14C]leucine and 50 µM transport inhibitor). For Na^+-dependent uptake regular HBSS was used, for Na^+-independent uptake NaCl was replaced by NMDG-Cl. Subsequently, the segments were rinsed three times in ice-cold HBSS pH 7.5 and lysed in 400 µl of 10% SDS. After 2–3 h, the lysed tissues were analyzed by scintillation counting.
To test whether the novel B^0AT1 inhibitors block the transporter in a more physiological environment, we studied leucine uptake in inverted sections of mouse intestine ( Figure 6C ). We established previously that Na^+-dependent leucine uptake (blue bars) in this system is mediated by B^0AT1 ([Broer et al., 2011]). In addition leucine uptake has a Na^+-independent transport component (salmon coloured bars), which is most likely mediated by rbat/b^0,+AT. Because of variability between animals, all data were normalized to uninhibited controls from the same animal.

The test system of assay [5] is B^0AT1. As to conditions: rat brush-border B^0AT1 in proteoliposomes; ref Pochini et al., 2014; cited from earlier work.

Where two headings read alike, the source gives them in different places.

In the case of `CN1[C@@H]2CC[C@H]1C[C@@H](OC(c1ccccc1)c1ccccc1)C2` [Benztropin, benztropine, reference compound], the IC50 (usually the midpoint of a concentration-inhibition curve) is 71 ± 8 µM in assay [1] and 44 ± 9 µM in assay [2].
Turning to `CCNC(=O)/C=C/c1cccc(Br)c1` [Cinromide, cinromide, reference compound], the IC50 is 0.3 µM in assay [3] and 0.5 ± 0.08 µM in assay [2]. In assay [4], the “Inhibition of Na+-dependent leucine uptake (B^0AT1) ex vivo” value is “limited capacity to inhibit B^0AT1”.
Turning to `COc1ccc(C(CCCN2CCOCC2)c2ccccc2)cc1` (stereo not shown) [Compound E-47], the IC50 in assay [1] is 17 ± 9 µM; in assay [2], 21 ± 6 µM.
For the compound `COc1ccc(C(CCCN2CCCCC2)c2ccccc2)cc1` (stereo not shown) [Compound E-53], the IC50 in assay [1] worked out at 8 ± 4 µM; in assay [2], 31 ± 15 µM.
In the same order, the values of `COc1ccc(C(CCCN2CCOCC2)c2ccc(C)cc2)cc1` (stereo not shown) [Compound E-62] are 16 ± 8 µM and 20 ± 1 µM.
In the same order, the values of `COc1ccc(C(CCCN2CCCCC2)c2ccc(C)cc2)cc1` (stereo not shown) [Compound E-63] are 39 ± 10 µM and 32 ± 14 µM.
On to `COc1ccc(C(CCCN2CCOCC2)c2ccc(F)cc2)cc1` (stereo not shown) [Compound E-68], for which the figures for the IC50 in assay [1] and in assay [2] were 19 ± 6 µM and 33 ± 9 µM, respectively.
In the same order, the values of `COc1ccc(C(CCCN2CCCCC2)c2ccc(F)cc2)cc1` (stereo not shown) [Compound E-69] are 46 ± 7 µM and 94 ± 20 µM.
The matching figures for `Cc1ccc(C(CCCN2CCOCC2)c2ccc3c(c2)OCO3)cc1` (stereo not shown) [Compound E-84]: 19 ± 4 µM and 31 ± 3 µM.
The matching figures for `Cc1ccc(C(CCCN2CCCCC2)c2ccc3c(c2)OCO3)cc1` (stereo not shown) [Compound E-85]: 8 ± 2 µM and 36 ± 11 µM.
As to `COc1ccc(C(CCCN2CCOCC2)c2ccc3c(c2)OCO3)cc1` (stereo not shown) [Compound E-89], the IC50 in assay [1] was 34 ± 7 µM; in assay [2], 39 ± 4 µM.
The matching figures for `COc1ccc(C(CCCN2CCCCC2)c2ccc3c(c2)OCO3)cc1` (stereo not shown) [Compound E-90]: 25 ± 8 µM and 74 ± 19 µM.
Take `c1ccc(CCCN2CCCCC2Cc2ccccc2)cc1` (stereo not shown) [NSC22789, reference compound]: the figures for the IC50 in assay [1] and in assay [2] were 78 ± 16 µM and 90 ± 21 µM, respectively.
On to `CS(=O)(=O)Nc1ccc([N+](=O)[O-])cc1Oc1ccccc1` [Nimesulide], for which the IC50 in assay [5] is 23 µM.
